According to ChEMBL document CHEMBL1201862, “PubChem BioAssay data set” (2004):
The source made the active and inactive calls.

Legend:
Mucolipin-3 = target: T1, Mucolipin-3 (Homo sapiens, UniProt Q8TDD5); experiment: Fluorescence counterscreen assay for […] agonists: dose response cell-based high-throughput screening assay to identify agonists of the transient receptor potential channel ML3 (TRPML3). [Related pubchem assays: 1424, 1448 ]; type: functional
T1 sequence (Q8TDD5 whole entry): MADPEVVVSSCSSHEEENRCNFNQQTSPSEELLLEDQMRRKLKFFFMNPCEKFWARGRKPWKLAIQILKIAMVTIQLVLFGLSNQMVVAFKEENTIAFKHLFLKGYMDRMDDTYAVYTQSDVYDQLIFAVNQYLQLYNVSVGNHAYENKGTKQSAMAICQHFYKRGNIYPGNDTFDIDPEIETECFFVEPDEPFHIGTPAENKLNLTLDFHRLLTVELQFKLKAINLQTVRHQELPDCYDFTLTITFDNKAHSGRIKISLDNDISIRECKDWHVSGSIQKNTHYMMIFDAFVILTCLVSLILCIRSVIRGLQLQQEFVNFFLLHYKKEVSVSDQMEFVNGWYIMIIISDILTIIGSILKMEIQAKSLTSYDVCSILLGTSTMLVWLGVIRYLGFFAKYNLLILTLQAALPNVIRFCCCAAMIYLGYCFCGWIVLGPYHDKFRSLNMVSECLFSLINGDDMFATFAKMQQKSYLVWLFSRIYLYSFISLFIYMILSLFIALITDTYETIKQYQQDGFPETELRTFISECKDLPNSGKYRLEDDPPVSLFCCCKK

Ion channel NompC = Ion channel NompC (Danio rerio, UniProt Q7T1G6); experiment: Dose response cell-based high-throughput screening assay for agonists of the transient receptor potential channel N1 (TRPN1). [Related pubchem assays (depositor defined):AID1424, AID1448]; type: functional
Ion channel NompC, sequence (Q7T1G6 whole entry): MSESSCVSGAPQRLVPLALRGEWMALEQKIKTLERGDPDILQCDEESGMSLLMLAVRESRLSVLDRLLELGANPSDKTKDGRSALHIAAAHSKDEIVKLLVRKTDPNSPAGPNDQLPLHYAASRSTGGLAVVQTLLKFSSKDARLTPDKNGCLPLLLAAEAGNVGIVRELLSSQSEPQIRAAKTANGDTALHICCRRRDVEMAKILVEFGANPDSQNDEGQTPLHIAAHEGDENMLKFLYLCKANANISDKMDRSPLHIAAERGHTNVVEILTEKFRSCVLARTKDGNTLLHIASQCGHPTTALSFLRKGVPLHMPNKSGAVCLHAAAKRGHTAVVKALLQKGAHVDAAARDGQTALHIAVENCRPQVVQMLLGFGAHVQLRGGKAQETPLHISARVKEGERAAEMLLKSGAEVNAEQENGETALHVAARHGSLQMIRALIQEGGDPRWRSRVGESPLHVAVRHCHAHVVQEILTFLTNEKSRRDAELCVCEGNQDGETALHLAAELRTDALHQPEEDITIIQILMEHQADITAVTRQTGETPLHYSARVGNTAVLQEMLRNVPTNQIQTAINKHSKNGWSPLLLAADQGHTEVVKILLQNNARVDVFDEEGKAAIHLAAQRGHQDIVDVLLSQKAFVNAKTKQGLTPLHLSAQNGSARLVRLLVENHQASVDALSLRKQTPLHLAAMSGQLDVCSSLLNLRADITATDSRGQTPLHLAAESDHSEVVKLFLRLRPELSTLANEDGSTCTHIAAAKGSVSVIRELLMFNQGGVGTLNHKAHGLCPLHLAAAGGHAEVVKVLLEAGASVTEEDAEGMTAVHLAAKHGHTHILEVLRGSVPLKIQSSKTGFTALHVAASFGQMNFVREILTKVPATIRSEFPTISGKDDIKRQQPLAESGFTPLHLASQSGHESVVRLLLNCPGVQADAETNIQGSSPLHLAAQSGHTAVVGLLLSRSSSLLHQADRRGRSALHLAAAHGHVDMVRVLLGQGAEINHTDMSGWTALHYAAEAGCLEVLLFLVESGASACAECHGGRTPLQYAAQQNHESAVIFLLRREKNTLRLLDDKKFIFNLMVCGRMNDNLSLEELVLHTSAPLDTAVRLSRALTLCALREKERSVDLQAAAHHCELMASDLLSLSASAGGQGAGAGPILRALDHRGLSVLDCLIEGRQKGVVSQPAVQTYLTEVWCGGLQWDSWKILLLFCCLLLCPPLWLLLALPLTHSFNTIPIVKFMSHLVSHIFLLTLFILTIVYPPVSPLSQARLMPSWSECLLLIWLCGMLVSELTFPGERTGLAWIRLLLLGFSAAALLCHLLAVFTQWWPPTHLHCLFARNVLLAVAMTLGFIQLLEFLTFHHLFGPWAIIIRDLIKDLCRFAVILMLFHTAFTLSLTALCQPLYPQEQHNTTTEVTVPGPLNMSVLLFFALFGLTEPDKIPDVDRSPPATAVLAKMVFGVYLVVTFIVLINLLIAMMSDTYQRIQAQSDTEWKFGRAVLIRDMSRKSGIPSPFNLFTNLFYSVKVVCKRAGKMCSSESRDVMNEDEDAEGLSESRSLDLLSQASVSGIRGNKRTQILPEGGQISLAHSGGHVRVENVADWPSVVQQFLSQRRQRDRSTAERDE

[1] = target: Mitogen-activated protein kinase 10 (Homo sapiens, UniProt P53779); experiment: Dose response biochemical screening assay for inhibitors of c-Jun N-Terminal Kinase 3 (JNK3). [Related pubchem assays: 746 ]
Mitogen-activated protein kinase 10, sequence (P53779 whole entry): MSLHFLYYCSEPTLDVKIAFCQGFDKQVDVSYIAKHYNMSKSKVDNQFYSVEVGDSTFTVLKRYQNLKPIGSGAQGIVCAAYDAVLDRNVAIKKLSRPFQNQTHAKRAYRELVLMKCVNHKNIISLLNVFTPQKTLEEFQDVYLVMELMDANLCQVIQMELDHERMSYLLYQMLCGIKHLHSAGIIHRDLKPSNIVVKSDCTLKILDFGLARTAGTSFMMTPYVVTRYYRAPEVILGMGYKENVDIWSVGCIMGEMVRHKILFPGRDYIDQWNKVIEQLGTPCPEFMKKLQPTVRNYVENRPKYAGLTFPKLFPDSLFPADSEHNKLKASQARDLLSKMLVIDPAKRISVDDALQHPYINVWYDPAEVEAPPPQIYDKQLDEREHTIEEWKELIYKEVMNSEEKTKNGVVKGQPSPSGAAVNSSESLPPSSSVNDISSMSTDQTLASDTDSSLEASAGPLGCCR

Integrin alpha-L = Integrin alpha-L (Mus musculus, UniProt P24063); experiment: modulators of CD8 T cell-vesicle binding, dose response, powder samples, mouse 2C CD8+ cells (AID 504565); type: functional
Integrin alpha-L, sequence (P24063 whole entry): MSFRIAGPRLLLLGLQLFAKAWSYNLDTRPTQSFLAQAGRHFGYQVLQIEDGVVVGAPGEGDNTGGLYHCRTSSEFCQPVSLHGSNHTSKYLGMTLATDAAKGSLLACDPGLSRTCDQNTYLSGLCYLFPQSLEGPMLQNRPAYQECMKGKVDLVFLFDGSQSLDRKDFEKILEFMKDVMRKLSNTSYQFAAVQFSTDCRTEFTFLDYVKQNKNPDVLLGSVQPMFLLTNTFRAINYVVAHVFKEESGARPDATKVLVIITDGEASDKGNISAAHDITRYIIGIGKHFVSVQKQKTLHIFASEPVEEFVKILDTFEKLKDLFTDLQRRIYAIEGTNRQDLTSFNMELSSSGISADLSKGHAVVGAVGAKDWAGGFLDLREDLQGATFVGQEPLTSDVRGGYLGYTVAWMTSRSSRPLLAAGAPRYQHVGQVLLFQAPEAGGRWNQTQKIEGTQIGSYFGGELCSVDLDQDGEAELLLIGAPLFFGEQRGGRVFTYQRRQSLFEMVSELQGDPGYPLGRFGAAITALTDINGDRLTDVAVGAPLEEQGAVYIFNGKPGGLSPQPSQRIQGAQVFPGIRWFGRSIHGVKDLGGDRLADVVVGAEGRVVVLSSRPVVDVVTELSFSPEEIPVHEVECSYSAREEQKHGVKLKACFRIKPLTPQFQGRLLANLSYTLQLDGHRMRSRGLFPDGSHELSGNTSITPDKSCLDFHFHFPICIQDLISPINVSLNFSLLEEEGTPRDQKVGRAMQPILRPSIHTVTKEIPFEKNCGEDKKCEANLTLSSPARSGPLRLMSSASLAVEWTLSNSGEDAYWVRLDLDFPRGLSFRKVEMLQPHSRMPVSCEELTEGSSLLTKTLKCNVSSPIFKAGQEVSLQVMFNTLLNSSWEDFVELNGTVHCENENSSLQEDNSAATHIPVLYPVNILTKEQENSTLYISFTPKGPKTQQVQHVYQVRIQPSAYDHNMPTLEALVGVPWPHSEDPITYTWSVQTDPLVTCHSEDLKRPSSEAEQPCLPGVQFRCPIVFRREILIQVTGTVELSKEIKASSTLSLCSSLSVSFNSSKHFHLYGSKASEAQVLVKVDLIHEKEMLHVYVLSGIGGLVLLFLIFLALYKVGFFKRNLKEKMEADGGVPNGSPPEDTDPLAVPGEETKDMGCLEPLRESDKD

T-cell = experiment: loss of vesicle association with mouse CD8+ T cells – mouse 2C CD8+ T cells, flow cytometry, dose response (AID 485284); type: functional
H4 = experiment: Luminescence Cell-Based Dose Response HTS to Identify Activators of 5'UTR Stem-Loop Driven Prion Protein mRNA Translation in H4 Neuroglioblastoma Cells. [Related pubchem assays: 1829 (Project Summary), 1814 (Primary HTS)]; type: functional; conditions: Homo sapiens
[2] = target: NACHT, LRR and PYD domains-containing protein 3 (Homo sapiens, UniProt Q96P20); experiment: NALP3 inhibitors in yeast, dose response, luminescent (AID 488799); type: functional
NACHT, LRR and PYD domains-containing protein 3, sequence (Q96P20 whole entry, the tested form may be a part): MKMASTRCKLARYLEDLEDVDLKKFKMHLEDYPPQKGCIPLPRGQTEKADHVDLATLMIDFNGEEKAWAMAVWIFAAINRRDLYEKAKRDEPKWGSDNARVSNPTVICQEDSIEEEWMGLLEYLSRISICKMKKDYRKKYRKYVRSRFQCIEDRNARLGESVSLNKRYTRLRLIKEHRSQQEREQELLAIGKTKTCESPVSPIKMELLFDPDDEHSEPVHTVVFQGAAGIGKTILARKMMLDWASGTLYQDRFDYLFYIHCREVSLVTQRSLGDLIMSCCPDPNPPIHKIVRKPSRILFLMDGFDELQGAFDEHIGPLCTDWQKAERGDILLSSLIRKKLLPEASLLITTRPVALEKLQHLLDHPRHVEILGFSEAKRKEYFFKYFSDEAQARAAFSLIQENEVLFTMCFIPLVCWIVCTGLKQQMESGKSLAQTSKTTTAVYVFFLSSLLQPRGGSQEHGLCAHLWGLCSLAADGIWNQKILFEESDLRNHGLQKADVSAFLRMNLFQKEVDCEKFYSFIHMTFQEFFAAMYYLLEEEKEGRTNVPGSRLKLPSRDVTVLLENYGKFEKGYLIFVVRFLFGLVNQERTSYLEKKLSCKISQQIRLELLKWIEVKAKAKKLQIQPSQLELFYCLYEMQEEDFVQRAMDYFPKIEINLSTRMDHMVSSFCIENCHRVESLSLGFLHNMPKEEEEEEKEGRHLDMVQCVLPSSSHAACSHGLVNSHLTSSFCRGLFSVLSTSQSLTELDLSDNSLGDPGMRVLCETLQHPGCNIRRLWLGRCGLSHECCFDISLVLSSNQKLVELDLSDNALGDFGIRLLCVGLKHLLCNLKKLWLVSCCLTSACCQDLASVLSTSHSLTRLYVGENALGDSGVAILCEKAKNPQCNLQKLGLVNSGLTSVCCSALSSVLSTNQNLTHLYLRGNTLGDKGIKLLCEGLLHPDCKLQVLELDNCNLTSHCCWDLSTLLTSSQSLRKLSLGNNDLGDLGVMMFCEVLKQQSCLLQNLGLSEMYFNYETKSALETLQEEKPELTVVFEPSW

[3] = target: T2, Short transient receptor potential channel 4 (Mus musculus, UniProt Q9QUQ5); experiment: potentiation of DAMGO-evoked TRPC4 calcium signal – cell-based, HEK293 TRPC4/mu-opioid, Fluo-4 calcium, EC20 DAMGO, dose response (AID 434941); type: functional
T2 sequence (Q9QUQ5 whole entry): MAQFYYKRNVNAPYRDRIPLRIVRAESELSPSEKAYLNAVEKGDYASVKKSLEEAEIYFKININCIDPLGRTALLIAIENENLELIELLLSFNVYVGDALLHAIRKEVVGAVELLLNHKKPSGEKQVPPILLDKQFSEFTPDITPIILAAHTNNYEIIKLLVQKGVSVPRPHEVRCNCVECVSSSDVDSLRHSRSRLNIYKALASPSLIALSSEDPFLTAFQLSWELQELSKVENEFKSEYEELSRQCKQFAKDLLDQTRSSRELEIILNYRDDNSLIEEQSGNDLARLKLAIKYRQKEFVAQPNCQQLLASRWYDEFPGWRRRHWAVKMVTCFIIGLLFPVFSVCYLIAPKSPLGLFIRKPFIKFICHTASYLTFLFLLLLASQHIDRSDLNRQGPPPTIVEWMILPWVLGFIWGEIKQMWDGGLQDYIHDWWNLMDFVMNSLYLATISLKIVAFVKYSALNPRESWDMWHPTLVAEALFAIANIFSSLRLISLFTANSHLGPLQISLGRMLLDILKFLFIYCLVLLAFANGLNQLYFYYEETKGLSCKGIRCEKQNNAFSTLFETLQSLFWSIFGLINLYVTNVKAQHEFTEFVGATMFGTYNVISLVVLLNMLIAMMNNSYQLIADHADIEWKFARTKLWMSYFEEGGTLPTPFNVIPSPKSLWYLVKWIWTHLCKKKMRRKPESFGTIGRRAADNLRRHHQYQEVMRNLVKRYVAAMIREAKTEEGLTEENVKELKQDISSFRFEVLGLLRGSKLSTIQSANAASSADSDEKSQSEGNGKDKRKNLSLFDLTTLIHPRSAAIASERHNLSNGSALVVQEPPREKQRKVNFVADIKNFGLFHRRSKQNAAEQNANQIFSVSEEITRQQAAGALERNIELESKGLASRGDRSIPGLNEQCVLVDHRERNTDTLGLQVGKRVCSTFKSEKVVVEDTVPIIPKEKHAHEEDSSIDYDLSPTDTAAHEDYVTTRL

[4] = Luminescence Cell-Based Dose Response HTS to Identify Activators of Luciferase Translation or Activity in H4 […] Cells. [Related pubchem assays: 1829 (Project Summary), 1814 (Primary HTS)]; type: functional
Troponin, cardiac muscle = Troponin, cardiac muscle (Homo sapiens, UniProt P19429+P45379+P63316); experiment: Fluorescence-based biochemical high throughput dose response assay for activators of the calcium sensitivity of cardiac Regulated Thin Filaments (RTF). [Related pubchem assays (depositor defined):AID493008, AID493018, AID504382, AID504383]; type: protein-complex assay

O=c1oc2c3c4c(cc2c(C(F)(F)F)c1CCN1CCOCC1)CCCN4CCC3
EC50 (Mucolipin-3): 4.56 µM (active)
EC50 (Ion channel NompC): > 3.32 µM (inactive)

CCOc1ccc(-c2nc(N)ncc2-c2ccccc2)c(O)c1
IC50 [1]: 12.7 µM (not active)
EC50 (Integrin alpha-L): 173 nM (active)
EC50 (T-cell): 25.8 µM (inactive)

O=C(Nc1cccc(Cl)c1)c1cnn2cccnc12
EC50 (H4): 19.1 µM (active)
IC50 [2]: 8.19 µM (active)
EC50 [3]: 1.68 µM (active)
EC50 [4]: 3 µM (active)

C=CCN1C(=O)/C(=C/c2ccc(N3CCOCC3)o2)C(=O)NC1=S
EC50 (Troponin, cardiac muscle): 5.95 µM (active)
